Our source for the ligand efficacy class values is PMC3023143 (Nature, 2011).

One experiment has as its system β1AR-m23. The experiment in a line: Ligand efficacy at β1AR-m23. It counts as cell-based, turkey (Meleagris gallopavo). Conditions: β1AR-m23, Supplementary Table 3.
The next experiment deals with human β1AR. The following applies: no reference given; cited from earlier work.

As for `CC(CCc1ccc(O)cc1)NCCc1ccc(O)c(O)c1` (centres unmarked) [Dobutamine, dobutamine], the ligand efficacy class result in the experiment with β1AR-m23 and in the experiment on human β1AR was “partial agonists” throughout.
